The record followed here is US8435978B2, “Substituted sulfonamide compounds” (Gruenenthal GmbH, priority 2006, dated 2013).

Test [1] concerns the target T1, B1R receptor of the rat (Rattus norvegicus, UniProt P97583).
T1 construct: host or cells: CHO K1 cells (Chinese hamster ovary), stably transfected
T1 sequence (P97583 1-337): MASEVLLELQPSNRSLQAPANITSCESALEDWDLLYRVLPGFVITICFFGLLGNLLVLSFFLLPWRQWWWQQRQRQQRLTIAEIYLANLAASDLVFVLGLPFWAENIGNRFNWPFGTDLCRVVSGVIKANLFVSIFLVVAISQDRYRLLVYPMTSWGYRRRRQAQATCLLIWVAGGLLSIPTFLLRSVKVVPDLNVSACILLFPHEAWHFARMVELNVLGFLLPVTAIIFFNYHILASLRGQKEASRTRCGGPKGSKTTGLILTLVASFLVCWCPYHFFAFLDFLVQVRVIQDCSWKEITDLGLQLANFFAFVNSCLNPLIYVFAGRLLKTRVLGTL
Briefly: Functional study on the bradykinin receptor 1 (B1R), FLIPR Ca2+ assay, rB1R cells. The conditions noted are these: agonist Des-Arg9-bradykinin 100 nM, % inhibition compared with the maximum achievable inhibition; for inhibition at 10 µM: CHO-K1, test substance 10 μM, read-out: B1R Antagonism, rat [10 μM] % Inhibition. Type of test: cell-based. An outline of the steps:
(§1)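 FLIPR Ca2+ assay in recombinant CHO K1 cells (human or rat B1R), Fluo-4 dye; 10 μM compound, 10 min, then EC-level agonist per species (0.5 nM Lys-Des-Arg9-BK human / 100 nM Des-Arg9-BK rat). Output: % inhibition vs maximum.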

The target in test [2] is T2, human B1R receptor (Homo sapiens, UniProt P46663).
T2 construct: host or cells: CHO K1 cells (Chinese hamster ovary), stably transfected
T2 sequence (P46663 1-353): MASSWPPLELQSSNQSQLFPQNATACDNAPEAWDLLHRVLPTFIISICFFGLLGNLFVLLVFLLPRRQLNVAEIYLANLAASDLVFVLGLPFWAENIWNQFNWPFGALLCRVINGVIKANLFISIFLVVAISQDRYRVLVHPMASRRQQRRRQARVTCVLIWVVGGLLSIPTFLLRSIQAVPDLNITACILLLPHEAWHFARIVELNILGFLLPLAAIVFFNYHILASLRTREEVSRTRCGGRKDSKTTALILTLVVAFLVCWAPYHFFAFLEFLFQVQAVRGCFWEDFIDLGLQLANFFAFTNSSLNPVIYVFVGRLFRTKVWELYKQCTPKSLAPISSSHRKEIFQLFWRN
Briefly: Functional study on the bradykinin receptor 1 (B1R), FLIPR Ca2+ assay, hB1R cells. The note with it: agonist Lys-Des-Arg9-bradykinin 0.5 nM, % inhibition compared with the maximum achievable inhibition; for inhibition at 10 µM: CHO-K1, test substance 10 μM, read-out: B1R Antagonism, human [10 μM] % Inhibition. It is filed as cell-based. An outline of the steps:
as §1

Broadly, the inhibition is the relative decrease from the control value, in per cent. As to `O=C(COCC1Cc2ccccc2CN1S(=O)(=O)c1ccc(Cl)cc1Cl)N1CCCN(Cc2ccccc2)CC1` (centres unmarked) [Example 79, 1-(4-benzyl-[1,4]diazepan-1-yl)-2-[2-(2,4-dichloro-phenylsulfonyl)-1,2,3,4-tetra-hydro-isoquinolin-3-ylmethoxy]-ethanone], the inhibition at 10 µM in test [1] was 54.5%; in test [2], 45.5%.
With `COc1cc(C)c(S(=O)(=O)N2CCCCC2COCC(=O)NCc2ccc(N3CCCCC3)cc2)c(C)c1` (centres unmarked) [Example 14, 2-[1-(4-methoxy-2,6-dimethyl-phenylsulfonyl)-piperidin-2-ylmethoxy]-N-(4-piperidin-1-yl-benzyl)-acetamide], the inhibition at 10 µM is 104% in test [1] and 97% in test [2].
In the same order, the values of `COc1cc(C)c(S(=O)(=O)N2CCCCC2COCC(=O)N2CCC(N3CCn4cccc4C3)CC2)c(C)c1` (centres unmarked) [Example 211, 1-(4-(3,4-dihydropyrrolo[1,2-a]pyrazin-2(1H)-yl)piperidin-1-yl)-2-((1-(4-methoxy-2,6-dimethylphenylsulfonyl)piperidin-2-yl)methoxy)ethanone] are 100% and 106%.
In the case of `O=C(COCC1CCCCN1S(=O)(=O)c1c(Cl)cccc1Cl)N1CCN(Cc2ccc(Br)cc2)CC1` (centres unmarked) [Example 406, 1-(4-(4-bromobenzyl)piperazin-1-yl)-2-((1-(2,6-dichlorophenylsulfonyl)piperidin-2-yl)methoxy)ethanone], the inhibition at 10 µM in test [1] turned out to be 100%; in test [2] it was 103%.
On to `CN(C(=O)COCC1CCCCN1S(=O)(=O)c1cccc2ccccc12)C(CN1CCOCC1)c1ccccc1` (centres unmarked) [Example 47, N-methyl-N-(2-morpholin-4-yl-1-phenyl-ethyl)-2-[1-(naphthyl-1-sulfonyl)-piperidin-2-ylmethoxy]-acetamide], for which the “B1R Antagonism, rat [10 μM] % Inhibition” value in test [1] (test substance 10 μM, rB1R CHO K1 cells) worked out at 48.84%. Besides, the “B1R Antagonism, human [10 μM] % Inhibition” value in test [2] (test substance 10 μM, hB1R CHO K1 cells) is recorded as 68.07%.
In the case of `O=C(COCC1Cc2ccccc2CN1S(=O)(=O)c1ccc(Cl)cc1Cl)N1CCCC1CN1CCCCC1` (centres unmarked) [Example 51, 2-[2-(2,4-dichloro-phenylsulfonyl)-1,2,3,4-tetrahydro-isoquinolin-3-ylmethoxy]-1-(2-piperidin-1-ylmethyl-pyrrolidin-1-yl)-ethanone], the inhibition at 10 µM in test [1] was 87.9%; in test [2], 65.1%.
`COc1cc(C)c(S(=O)(=O)N2CCCCC2COCC(=O)N2CCN(CCC3CCN(C)CC3)CC2)c(C)c1` (centres unmarked) [Example 212, 2-((1-(4-methoxy-2,6-dimethylphenylsulfonyl)piperidin-2-yl)methoxy)-1-(4-(2-(1-methylpiperidin-4-yl)ethyl)piperazin-1-yl)ethanone]: the inhibition at 10 µM in test [1] turned out to be 100%; in test [2], 107%.
`COc1cc(C)c(S(=O)(=O)N2CCCC2COCC(=O)N2CCCC2Cc2ccccn2)c(C)c1` (centres unmarked) [Example 447, 2-((1-(4-methoxy-2,6-dimethylphenylsulfonyl)pyrrolidin-2-yl)methoxy)-1-(2-(pyridin-2-ylmethyl)pyrrolidin-1-yl)ethanone]: the inhibition at 10 µM in test [1] was determined as 94.2%; in test [2], 66.5%.
On the same counts, the results for `O=C(COCC1CCCN1S(=O)(=O)c1c(Cl)cc(Cl)cc1Cl)NCC1CCCN(Cc2ccccc2)C1` (centres unmarked) [Example 327, N-((1-benzylpiperidin-3-yl)methyl)-2-((1-(2,4,6-trichlorophenylsulfonyl)pyrrolidin-2-yl)methoxy)acetamide] are 101% and 104%.
Regarding `COc1cc(C)c(S(=O)(=O)N2CCCCC2COCC(=O)N2CCCC2CN2CCCCC2)c(C)c1` (centres unmarked) [Example 399, 2-((1-(4-methoxy-2,6-dimethylphenylsulfonyl)piperidin-2-yl)methoxy)-1-(2-(piperidin-1-ylmethyl)pyrrolidin-1-yl)ethanone], the inhibition at 10 µM is 102% in test [1] and 93% in test [2].
